Values joined by “and” are separate entries in the source; they are usually repeats but may differ in a detail not shown here. Identical values can stand only once.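 Briefly, cells in 96-well plates were exposed to five compound concentrations for 48 h, and endpoints were estimated by linear interpolation. The concentration for 50% growth inhibition is given as GI50. TGI: concentration producing complete growth inhibition.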
Legend:
Assay in all cases: inhibition of tumour cell growth, NCI panel, 48 h
[1] = test system: UACC-62 melanoma
[2] = test system: NCI-H23 lung
[3] = test system: K-562 leukemia
[4] = test system: TK-10 renal
[5] = test system: MDA-MB-435
[6] = test system: 786-0 renal
[7] = test system: MOLT-4 leukemia
[8] = test system: EKVX NSCLC
[9] = test system: IGROV1 ovarian
[10] = test system: NCI/ADR-RES ovarian

Compound	GI50 [1] [µM]	TGI [1]	GI50 [2] [µM]	TGI [2] [µM]	GI50 [3] [µM]	TGI [3] [µM]	GI50 [4] [µM]	TGI [4]	GI50 [5] [µM]	TGI [5]	GI50 [6] [µM]	TGI [6]	GI50 [7] [µM]	TGI [7]	GI50 [8] [µM]	TGI [8]	GI50 [9] [µM]	TGI [9]	GI50 [10]	TGI [10] [µM]
C[C@@H](C[C@H](CCO)c1ccccc1)c1ccc2ccccc2c1	1.42	2.86 µM	1.6	3.38	1.63	3.82	1.62	3.12 µM	1.56	2.95 µM	1.51	2.89 µM	0.356	1.61 µM	1.44	2.82 µM	1.57	3.01 µM	1.66 µM	3.4
Cc1c(C2CCSc3ccccc3N2)sc2ccccc12 (stereo not drawn)		> 100 µM		> 100		> 100		> 100 µM		> 100 µM		> 100 µM		> 100 µM		> 100 µM		> 100 µM		> 100
COC(=O)Nc1nc2ccc(C(=O)c3cccs3)cc2[nH]1	0.189	65.4 µM and > 100 µM	0.277	0.602		42.5		60.4 µM and > 100 µM	0.029	0.158 µM and 0.102 µM	0.261	29.8 µM and > 100 µM	0.269	13 µM and > 100 µM	0.584	15.2 µM and > 100 µM	0.594	36.5 µM and > 100 µM	0.0388 µM and 0.0664 µM	> 100
O=C(/C=C/c1ccc(Cl)cc1Cl)c1ccc(Cl)cc1Cl	1.52	12.1 µM	20.5	67.2	10.4	31.4	28	> 73.2 µM	16.7	35.3 µM	22	61.8 µM	6.11	14.9 µM	20.6	58.7 µM	22.3	55.8 µM	25.1 µM	> 77.2
Cc1cc2nc(-c3ccc(O)c(O)c3)n(Cc3ccc(O)c(O)c3)c2cc1C	19	41.1 µM	35.1	> 100	7.43	> 100	26.9	82.6 µM	16	> 100 µM	34	> 100 µM	4.4	28.6 µM	79.9	> 100 µM	18.1	> 100 µM	> 100 µM	> 100
CNc1nc(-c2ccc3c(N)n[nH]c3c2)cc(N2C[C@@H](C(=O)NC3CCCCC3)CC[C@H]2C)n1	0.858	16.3 µM	3.69	20.1	3.78	39	0.366	9.46 µM	1.11	14.4 µM	3.28	14.6 µM	1.84	> 32.5 µM	2.12	15.4 µM	2.45	14.9 µM	13.3 µM	41.3
CCOc1ccccc1N=Cc1c2ccccc2cc2ccccc12		> 100 µM		45.9		> 67.7		67.2 µM		56 µM		41.1 µM		53.3 µM		52.3 µM		49.9 µM		> 66.1
